The values below come from patent publication US20120088808A1, “CRYSTAL FORMS OF SAXAGLIPTIN” (SANDOZ AG, priority 2009, published 2012).

Structures can show the parent of a compound that is named as a salt.

What all share (assay type): physicochemical
A short description of series [1]: Moisture sorption isotherm / water content at defined relative humidity, 25° C. The procedure:
The moisture sorption isotherm was recorded with a SPS-11 moisture sorption analyzer (MD Mess-technik, Ulm, D). The measurement cycle was started at 0% relative humidity (RH), increased in 10% steps up to 90% RH and in a 5% step up to 95% RH. The equilibrium condition for each step was set to a constant mass ±0.003% over 49 min. The temperature was 25±0.1° C.

Series [2] in a line: Stability of the crystal form against relative humidity (polymorphic transformation). The following applies: for relative humidity above which the form transforms to known Dihydrate H2-1: transformation not reversible, hydrochloride. The protocol: Infrared spectra (IR) were collected on a MKII Golden Gate™ Single Reflection Diamond ATR (attenuated total reflection) cell with a Bruker Tensor 27 FTIR spectrometer with 4 cm^−1 resolution. To collect a spectrum a spatula tip of a sample was applied to the surface of the diamond in powder form. Then the sample was pressed onto the diamond with a sapphire anvil and the spectrum was recorded. A spectrum of the clean diamond was used as background spectrum. A typical precision of the wavenumber values is in the range of about ±2 cm^−1. Thus, an infrared peak that appears at 1716 cm^−1 can appear between 1714 and 1718 cm^−1 on most infrared spectrometers under standard conditions. A sample was stored at 45-49% relative humidity for 12 hours.

Series [3] can be described thus: Water content by the Karl Fischer method. The protocol: The water content is determined according to the Karl Fischer method.
A short description of series [4]: Thermogravimetric analysis (mass / water loss). The procedure: Thermogravimetric analysis was performed with the thermogravimetric system TGA-7 using the Pyris Software for Windows NT (Perkin-Elmer, Norwalk, Conn., USA), 50 μl platinum pans, nitrogen purge gas (sample purge: 20 ml min^−1, balance purge: 40 ml min^−1).
The mark [5] stands for this setting: at 40% relative humidity at 25° C.

As to `N#C[C@@H]1C[C@@H]2CC2N1C(=O)[C@@H](N)C12CC3CC(CC(O)(C3)C1)C2` (stereo partly drawn) [form I-S, Saxagliptin hydrochloride], the water content result in series [1] (at about 50% relative humidity at 25° C., reversible) is listed as “about 1.5%”. Besides, the “fate of the water when lowering the relative humidity” value in series [1] (relative humidity at 25° C. lowered to about 0.5%, reversible on exposure to about 50% humidity) is given as “lost completely”. The “relative humidity at which the form is stable” value in series [2] is recorded as “below 50 % relative humidity”. In addition, the “relative humidity above which the form transforms to known Dihydrate H2-1” value in series [2] (listed as Form I-S) is given as “Above 50 % relative humidity”. Moreover, the “water content (Karl Fischer apparatus)” value in series [3] (crystalline form as obtained in example 1) came out at 1.2 % w/w.
`N#C[C@@H]1C[C@@H]2CC2N1C(=O)[C@@H](N)C12CC3CC(CC(O)(C3)C1)C2` (stereo partly drawn) [form HT-IV S, Saxagliptin hydrochloride]: in series [2] (after storage at 45-49% relative humidity for 12 hours), the “change in the crystal form (FTIR)” value is on record as “No change in the crystal form”. Besides, the “Water (KF)” value turned out to be 0.7% in series [3] (after drying in vacuum oven at 50° C. about 10 hours, then about 80° C. for 5 hours) and 1.2% in series [3] (sample stored at 45-49% relative humidity for 12 hours).
As for `N#C[C@@H]1C[C@@H]2CC2N1C(=O)[C@@H](N)C12CC3CC(CC(O)(C3)C1)C2` (stereo partly drawn) [form HT-S, Saxagliptin hydrochloride], the “water loss based on thermogravimetric analysis” value in series [4] (FIG. 6) was “not more than 0.5 % w/w”.
With `N#C[C@@H]1C[C@@H]2CC2N1C(=O)[C@@H](N)C12CC3CC(CC(O)(C3)C1)C2` (stereo partly drawn) [form IV-S, Saxagliptin hydrochloride], the “water content (moisture sorption analysis)” value in series [1] (at 0% relative humidity, process reversible) is reported as 12.8%; in series [1] (setting [5]), 13.1%. In addition, the “water corresponding to the water content” value in series [1] (setting [5]) was 2.94 mol of water. The “water corresponding to the TGA mass loss” value in series [4] (up to 100° C.) is listed as 2.86 mol of water. In series [4] (up to 100° C., FIG. 11), the “mass loss by thermogravimetric analysis” value is reported as “about 12.8%”. Also, in series [2], the “relative humidity above which the form transforms to known Dihydrate H2-1” value is recorded as “above 40 % relative humidity”.
